17 compounds from US8435978B2, “Substituted sulfonamide compounds” (Gruenenthal GmbH, priority 2006, dated 2013) can be followed below.

In one assay the target is T1, B1R receptor of the rat (Rattus norvegicus, UniProt P97583).
T1 construct: host or cells: CHO K1 cells (Chinese hamster ovary), stably transfected
T1 sequence (P97583 1-337): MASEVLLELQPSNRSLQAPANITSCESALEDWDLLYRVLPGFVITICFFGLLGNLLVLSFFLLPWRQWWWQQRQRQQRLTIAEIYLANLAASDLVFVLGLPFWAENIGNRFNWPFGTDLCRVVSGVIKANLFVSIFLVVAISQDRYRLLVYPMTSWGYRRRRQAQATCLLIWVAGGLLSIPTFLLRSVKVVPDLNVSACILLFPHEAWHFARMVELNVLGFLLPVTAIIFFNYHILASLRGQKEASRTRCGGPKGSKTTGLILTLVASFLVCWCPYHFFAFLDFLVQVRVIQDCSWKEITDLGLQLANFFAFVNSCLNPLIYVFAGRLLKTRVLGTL
The assay can be described thus: Functional study on the bradykinin receptor 1 (B1R), FLIPR Ca2+ assay, rB1R cells. In kind it is cell-based. The following applies: agonist Des-Arg9-bradykinin 100 nM, % inhibition compared with the maximum achievable inhibition; for inhibition at 10 µM: CHO-K1, test substance 10 μM, read-out: B1R Antagonism, rat [10 μM] % Inhibition; for B1R Antagonism, rat [10 μM] % Inhibition: test substance 10 μM, rB1R CHO K1 cells. As to the method: (§1) The agonistic or antagonistic action of substances can be quantified on the bradykinin receptor 1 (B1R) of the species human and rat with ectopically expressing cell lines (CHO K1 cells) and with the aid of a Ca^2+-sensitive dye (Fluo-4) using a fluorescent imaging plate reader (FLIPR). The indication in % activation is based on the Ca^2+ signal after addition of Lys-Des-Arg^9-bradykinin (0.5 nM) or Des-Arg^9-bradykinin (100 nM). Antagonists result in a suppression of the Ca^2+ influx following administration of the agonist. The % inhibition in comparison with the maximum achievable inhibition is indicated.
(§2) The agonistic or antagonistic action of substances can be determined on the bradykinin receptor 1 (B1R) of the species human and rat using the following assay. According to this assay, the Ca^2+ influx through the channel is quantified with the aid of a Ca^2+-sensitive dye (type Fluo-4, Molecular Probes Europe BV, Leiden, Netherlands) using a Fluorescent Imaging Plate Reader (FLIPR, Molecular Devices, Sunnyvale, USA).
(§3) Chinese hamster ovary cells (CHO K1 cells) which have been stably transfected with the human B1R gene (hB1R cells, Euroscreen s.a., Gosselies, Belgium) or with the B1R gene of the rat (rB1R cells, Axxam, Milan, Italy) are used. For functional studies, the cells are plated out on black 96-well plates having a clear base (BD Biosciences, Heidelberg, Germany) in a density of 20,000-25,000 cells/well. The cells are incubated overnight at 37° C. and with 5% CO2 in culture medium (hB1R cells: Nutrient Mixture Ham's F12, Gibco Invitrogen GmbH, Karlsruhe, Germany; rB1R cells: D-MEM/F12, Gibco Invitrogen GmbH, Karlsruhe, Germany), with 10 vol. % FBS (fetal bovine serum, Gibco Invitrogen GmbH, Karlsruhe, Germany). On the following day, the cells are loaded for 60 minutes at 37° C. with 2.13 μM Fluo-4 (Molecular Probes Europe BV, Leiden, Netherlands) in HBSS buffer (Hank's buffered saline solution, Gibco Invitrogen GmbH, Karlsruhe, Germany) […] (Sigma-Aldrich, Taufkirchen, Germany) and 10 mM HEPES (Sigma-Aldrich, Taufkirchen, Germany). The plates are then washed twice with HBSS buffer, and HBSS buffer additionally containing 0.1% BSA (bovine serum albumin; Sigma-Aldrich, Taufkirchen, Germany), 5.6 mM glucose and 0.05% gelatin (Merck KGaA, Darmstadt, Germany) is added to the plates. After incubation for a further 20 minutes at room temperature, the plates are inserted into the FLIPR for Ca^2+ measurement. The Ca^2+-dependent fluorescence is measured before and after the addition of substances (λex=488 nm, λem=540 nm). Quantification is carried out by measuring the highest fluorescence intensity (FC, fluorescence counts) over time.
(§4) The FLIPR protocol consists of 2 substance additions. Test substances (10 μM) are first pipetted onto the cells and the Ca^2+ influx is compared with the control (hB1R: Lys-Des-Arg^9-bradykinin 0.5 nM; rB1R: Des-Arg^9-bradykinin 100 nM). This gives the activation in %, based on the Ca^2+ signal after addition of Lys-Des-Arg^9-bradykinin (0.5 nM) or Des-Arg^9-bradykinin (100 nM).
(§5) After 10 minutes' incubation, 0.5 nM Lys-Des-Arg^9-bradykinin (hB1R) or 100 nM Des-Arg^9-bradykinin (rB1R) are applied, and the influx of Ca^2+ is likewise determined. Antagonists lead to suppression of the Ca^2+ influx. The % inhibition compared with the maximum achievable inhibition is calculated.

The target in the next assay is T2, human B1R receptor (Homo sapiens, UniProt P46663).
T2 construct: host or cells: CHO K1 cells (Chinese hamster ovary), stably transfected
T2 sequence (P46663 1-353): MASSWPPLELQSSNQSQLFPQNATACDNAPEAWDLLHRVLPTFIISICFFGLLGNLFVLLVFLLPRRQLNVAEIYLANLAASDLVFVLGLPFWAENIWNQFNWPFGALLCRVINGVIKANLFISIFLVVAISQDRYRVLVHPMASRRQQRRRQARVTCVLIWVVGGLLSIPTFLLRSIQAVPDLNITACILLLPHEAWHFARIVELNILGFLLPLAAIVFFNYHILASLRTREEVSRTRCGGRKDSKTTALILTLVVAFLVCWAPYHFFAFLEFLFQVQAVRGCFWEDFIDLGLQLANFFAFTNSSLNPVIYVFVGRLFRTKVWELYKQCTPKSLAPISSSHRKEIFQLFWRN
As to the kind of experiment: Functional study on the bradykinin receptor 1 (B1R), FLIPR Ca2+ assay, hB1R cells. In kind it is cell-based. The following applies: agonist Lys-Des-Arg9-bradykinin 0.5 nM, % inhibition compared with the maximum achievable inhibition; for inhibition at 10 µM: CHO-K1, test substance 10 μM, read-out: B1R Antagonism, human [10 μM] % Inhibition; for B1R Antagonism, human [10 μM] % Inhibition: test substance 10 μM, hB1R CHO K1 cells. As to the method: as §1, §2, §3, §4, §5

What is called inhibition is the change of the read-out against control, counted positive when it falls. With `COc1ccc(S(=O)(=O)N2Cc3ccccc3C[C@H]2COCC(=O)N2CCN(C3CCN(C)CC3)CC2)cc1` [Example 142, (S)-2-((2-(4-methoxyphenylsulfonyl)-1,2,3,4-tetrahydroisoquinolin-3-yl)methoxy)-1-(4-(1-methylpiperidin-4-yl)piperazin-1-yl)ethanone], the inhibition at 10 µM is 63% at B1R receptor of the rat and 89.9% on human B1R receptor.

Take `CCN(Cc1ccncc1)C(=O)COCC1CCCN1S(=O)(=O)c1c(C)cc(OC)cc1C` (stereo not shown) [Example 466, N-ethyl-2-((1-(4-methoxy-2,6-dimethylphenylsulfonyl)pyrrolidin-2-yl)methoxy)-N-(pyridin-4-ylmethyl)acetamide]: the inhibition at 10 µM amounted to 99.7% at B1R receptor of the rat and 92.5% at human B1R receptor.

On to `COc1cc(C)c(S(=O)(=O)N2CCCCC2COCC(=O)N2CCN(c3nc4ccccc4s3)CC2)c(C)c1` (stereo not shown) [Example 526, 1-(4-(benzo[d]thiazol-2-yl)piperazin-1-yl)-2-((1-(4-methoxy-2,6-dimethylphenylsulfonyl)piperidin-2-yl)methoxy)ethanone], for which the inhibition at 10 µM on B1R receptor of the rat was determined as 102%; at human B1R receptor it was 73.3%.

In the case of `COc1cc(C)c(S(=O)(=O)N2CCCC2COCC(=O)N2CCN(c3ccc(C)c(C)c3)CC2)c(C)c1` (stereo not shown) [Example 347, 1-(4-(3,4-dimethylphenyl)piperazin-1-yl)-2-((1-(4-methoxy-2,6-dimethylphenylsulfonyl)pyrrolidin-2-yl)methoxy)ethanone], the inhibition at 10 µM on B1R receptor of the rat was determined as 103%; on human B1R receptor it was 56.6%.

Regarding `COc1cc(C)c(S(=O)(=O)N2CCCC2COCC(=O)NCc2ccc(N3CCOCC3)cc2)c(C)c1` (stereo not shown) [Example 579, 2-((1-(4-methoxy-2,6-dimethylphenylsulfonyl)pyrrolidin-2-yl)methoxy)-N-(4-morpholinobenzyl)acetamide], the values for the inhibition at 10 µM on B1R receptor of the rat and at human B1R receptor were 107% and 39.4%, respectively.

Consider `COc1cc(C)c(S(=O)(=O)N2CCCCC2COCC(=O)N2CCOC(c3cccnc3)C2)c(C)c1` (stereo not shown) [Example 207, 2-((1-(4-methoxy-2,6-dimethylphenylsulfonyl)piperidin-2-yl)methoxy)-1-(2-(pyridin-3-yl)morpholin)ethanone], for which, at B1R receptor of the rat, the “B1R Antagonism, rat [10 μM] % Inhibition” value was 100.16%. The “B1R Antagonism, human [10 μM] % Inhibition” value on human B1R receptor stood at 101.93%.

`O=C(COCC1CCCN1S(=O)(=O)c1c(Cl)cc(Cl)cc1Cl)NCc1ccc(CN2CCOCC2)cc1` (stereo not shown) [Example 49, N-(4-morpholin-4-ylmethyl-benzyl)-2-[1-(2,4,6-trichloro-phenylsulfonyl)-pyrrolidin-2-ylmethoxy]-acetamide]: the inhibition at 10 µM amounted to 92.3% at B1R receptor of the rat and 65.9% on human B1R receptor.

As to `O=C(COCC1CCCCN1S(=O)(=O)c1c(Cl)cccc1Cl)N1CCC(N2CCCCC2)CC1` (stereo not shown) [Example 336, 1-(1,4′-bipiperidin-1′-yl)-2-((1-(2,6-dichlorophenylsulfonyl)piperidin-2-yl)methoxy)ethanone], the results for the inhibition at 10 µM at B1R receptor of the rat and at human B1R receptor were 105% and 103%, respectively.

As to `COc1cc(C)c(S(=O)(=O)N2Cc3ccccc3C[C@H]2COCC(=O)N2CCN(CC3CCN(C)CC3)CC2)c(C)c1` [Example 185, (S)-2-((2-(4-methoxy-2,6-dimethylphenylsulfonyl)-1,2,3,4-tetrahydroisoquinolin-3-yl)methoxy)-1-(4-((1-methylpiperidin-4-yl)methyl)piperazin-1-yl)ethanone], the values for the inhibition at 10 µM on B1R receptor of the rat and at human B1R receptor were 97.9% and 105%, respectively.

Consider `O=C(COCC1CCCCN1S(=O)(=O)c1ccc(Cl)c(Cl)c1)Nc1cccc(CN2CCCC2)c1` (stereo not shown) [Example 293, 2-((1-(3,4-dichlorophenylsulfonyl)piperidin-2-yl)methoxy)-N-(3-(pyrrolidin-1-ylmethyl)phenyl)acetamide], for which the values for the inhibition at 10 µM at B1R receptor of the rat and on human B1R receptor were -6.96% and 90.5%, respectively.

On to `COc1cc(C)c(S(=O)(=O)N2CCCCC2COCC(=O)NCc2ccc(CN3CCOCC3)cc2)c(C)c1` (stereo not shown) [Example 24, 2-[1-(4-methoxy-2,6-dimethyl-phenylsulfonyl)-piperidin-2-ylmethoxy]-N-(4-morpholin-4-ylmethyl-benzyl)-acetamide], for which the inhibition at 10 µM was found to be 107% on B1R receptor of the rat and 92.2% on human B1R receptor.

Take `O=C(COCC1CCCN1S(=O)(=O)c1ccc(Cl)c(Cl)c1)N1CCN(c2ccccc2)CC1` (stereo not shown) [Example 89, 2-[1-(3,4-dichloro-phenylsulfonyl)-pyrrolidin-2-ylmethoxy]-1-(4-phenyl-piperazin-1-yl)-ethanone]: the inhibition at 10 µM on B1R receptor of the rat amounted to 0%; on human B1R receptor, 41.3%.

For the compound `COc1cc(C)c(S(=O)(=O)N2CCCCC2COCC(=O)NCc2cccc(N3CCCCC3)c2)c(C)c1` (stereo not shown) [Example 430, 2-((1-(4-methoxy-2,6-dimethylphenylsulfonyl)piperidin-2-yl)methoxy)-N-(3-(piperidin-1-yl)benzyl)acetamide], the inhibition at 10 µM at B1R receptor of the rat came out at 101%; at human B1R receptor, 38.6%.

As to “2-((1-(2,6-dichlorophenylsulfonyl)piperidin-2-yl)methoxy)-N-(2-(piperidin-1-yl)ethyl)acetamide [Example 440]”, at B1R receptor of the rat, the “B1R Antagonism, rat [10 μM] % Inhibition” value came to 95.62%. In addition, at human B1R receptor, the “B1R Antagonism, human [10 μM] % Inhibition” value was found to be 98.07%.

In the case of `COc1cc(C)c(S(=O)(=O)N2CCCC2COCC(=O)Nc2nc3ccccc3n2C)c(C)c1` (stereo not shown) [Example 504, 2-((1-(4-methoxy-2,6-dimethylphenylsulfonyl)pyrrolidin-2-yl)methoxy)-N-(1-methyl-1H-benzo[d]imidazol-2-yl)acetamide], the results for the inhibition at 10 µM on B1R receptor of the rat and at human B1R receptor were 90.6% and 24.2%, respectively.

For the compound `COc1cc(C)c(S(=O)(=O)N2CCCC2COCC(=O)N2CCN(c3ccccc3F)CC2)c(C)c1` (stereo not shown) [Example 516, 1-(4-(2-fluorophenyl)piperazin-1-yl)-2-((1-(4-methoxy-2,6-dimethylphenylsulfonyl)pyrrolidin-2-yl)methoxy)ethanone], the inhibition at 10 µM at B1R receptor of the rat was determined as 99.4%; on human B1R receptor it was 101%.

As for `O=C(COCC1CCCN1S(=O)(=O)c1c(Cl)cc(Cl)cc1Cl)N1CCN(CCc2ccccc2)CC1` (stereo not shown) [Example 329, 1-(4-phenethylpiperazin-1-yl)-2-((1-(2,4,6-trichlorophenylsulfonyl)pyrrolidin-2-yl)methoxy)ethanone], the inhibition at 10 µM on B1R receptor of the rat was 98.2%; at human B1R receptor, 105%.
